Molecular target: T1, PD-1/PD-L1 (Homo sapiens, UniProt Q9NZQ7)
T1 construct: 60535 (PD-1/NFAT-Reporter-Jurkat); host or cells: CHO cells expressing PD-L1; Jurkat cells expressing PD-1
Test: Detection of biological activity of PD-1/PD-L1 signaling inhibition at the cellular level (NFAT luciferase reporter, PD-1/NFAT-Reporter-Jurkat cells co-cultured with TCR activator/PD-L1-CHO cells)
Format: cell-based
Conditions: PD-1/NFAT-Reporter-Jurkat + TCR activator/PD-L1-CHO co-culture, 6 hours; Atezolizumab as positive control
From the text: Detection of Biological Activity of PD-1/PD-L1 Signaling Inhibition at the Cellular Level
This detection method is used for evaluating the biological activity of the compounds described in the present invention at the cellular level.
This detection method uses the luciferase reporter gene method to detect the biological activity of the compound on the inhibition of PD-1/PD-L1 signal at the cellular level. PD-1/NFAT—Reporter—Jurkat cells stably express human PD-1 and express the luciferase reporter gene regulated by NFAT elements; TCR activator/PD-L1-CHO cells stably express human PD-L1 and TCR activator elements. When the two cell lines were co-cultured, the binding of PD-1/PD-L1 inhibited the TCR signaling pathway, thereby inhibiting the expression of the downstream NFAT-controlled luciferase reporter gene. When PD-1/PD-L1 antibody or inhibitor is added, this inhibitory effect is reversed and luciferase is expressed, so that the effect of PD-1/PD-L1 inhibitor on luciferase activity can be detected.
PD-1/NFAT—Reporter—Jurkat cell (Cat: 60535) and TCR activator/PD-L1-CHO cell (Cat: 60536) were purchased from BPS Bioscience. Anti-human PD-L1 antibody (Atezolizumab, Cat: A2004) was purchased from Selleck; luciferase reporter gene expression detection kit (ONE-Glo™ Luciferase Assay System, Cat: E6120) was purchased from Promega; multifunction plate reader (SpectraMax i3x) was purchased from Molecular Devices.
The PD-1/NFAT—Reporter—Jurkat cells and TCR activator/PD-L1-CHO cells were cultured according to the routine cell culture protocol.
TCR activator/PD-L1-CHO cells were harvested and seeded into a 96-well culture plate at 35,000 cells/well in a medium volume of 100 μl and incubated overnight at 37° C. The next day, the medium was discarded, compound was added and incubated for 30 minutes, while a solvent control (dimethyl sulfoxide, DMSO, final concentration of 0.1%) and PD-L1 antibody (Atezolizumab, final concentration of about 10 nM) as positive controls were set. PD-1/NFAT-reporter-Jurkat cells were then added. After culturing for 6 hours, the luciferase activity was detected according to the instructions of the luciferase detection reagent.
Using PD-L1 antibody as a positive control, calculate the inhibition rate of PD-1/PD-L1 binding of the test compound (%)=(chemiluminescence value of compound treated wells/average value of chemiluminescence value of solvent control wells−1)/(average value of chemiluminescence value of PD-L1 antibody well/average value of chemiluminescence value of solvent control well−1)×100%.
According to the above detection method, the compounds of the present invention were evaluated for their biological activity at the cellular level, and the activity results are shown in the following table.

T1 sequence (Q9NZQ7 19-290): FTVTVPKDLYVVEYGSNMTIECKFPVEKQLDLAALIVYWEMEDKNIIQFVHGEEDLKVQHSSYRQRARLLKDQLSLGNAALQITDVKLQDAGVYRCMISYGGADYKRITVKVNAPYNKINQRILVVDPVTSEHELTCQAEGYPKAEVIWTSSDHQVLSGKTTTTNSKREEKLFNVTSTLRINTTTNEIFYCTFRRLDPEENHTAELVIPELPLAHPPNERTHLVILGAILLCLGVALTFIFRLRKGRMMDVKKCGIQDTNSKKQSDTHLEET

SMILES | EC50 [nM]
COc1cc(Cn2ncc3c(-c4cccc(-c5ccc(CNC[C@@H]6CCC(=O)N6)cc5)c4Cl)cc(Cl)cc32)c(Cl)cc1CN[C@@H](CO)C(=O)O [Compound 117] | 537
COc1cc(-c2cccc(-c3cccc4c3cnn4Cc3cc(OC)c(CN(C)CC4CCC(CC(=O)O)CC4)cc3Cl)c2Cl)ccc1CNC[C@@H]1CCC(=O)N1 (some centres unmarked) [Compound 118] | 53
COc1cc(-c2cccc(-c3cccc4c3cnn4Cc3cc(OC)c(CN(C)C4CC(CC(=O)O)C4)cc3Cl)c2Cl)ccc1CNC[C@@H]1CCC(=O)N1 (some centres unmarked) [Compound 119] | 152
COc1cc(-c2cccc(-c3cccc4c3cnn4Cc3cc(OC)c(CN(C)C4CCC(/C=C/C(=O)O)CC4)cc3Cl)c2Cl)ccc1CNC[C@@H]1CCC(=O)N1 (some centres unmarked) [Compound 120] | 32
COc1cc(-c2cccc(-c3cccc4c3cnn4Cc3cc(OC)c(CN(C)C4CCC(CCC(=O)O)CC4)cc3Cl)c2Cl)ccc1CNC[C@@H]1CCC(=O)N1 (some centres unmarked) [Compound 121] | 34
COc1cc(-c2cccc(-c3cccc4c3cnn4Cc3cc(OC)c(CN(C4CCC(C(=O)O)CC4)C4CC4)cc3Cl)c2Cl)ccc1CNC[C@@H]1CCC(=O)N1 (some centres unmarked) [Compound 122] | 320
CCOc1cc(Cn2ncc3c(-c4cccc(-c5ccc(CNC[C@@H]6CCC(=O)N6)c(OC)c5)c4Cl)cccc32)c(Cl)cc1CN(C)C[C@H]1CC[C@H](C(=O)O)CC1 [Compound 124] | 91
COc1cc(-c2cccc(-c3cccc4c3cnn4Cc3cc(OC)c(CN(Cc4ccccc4)[C@H]4CC[C@H](C(=O)O)CC4)cc3Cl)c2Cl)ccc1CNC[C@@H]1CCC(=O)N1 [Compound 125] | 680
COc1cc(-c2cccc(-c3cccc4c3cnn4Cc3cc(OC)c(CN(CC4CC4)[C@H]4CC[C@H](C(=O)O)CC4)cc3Cl)c2Cl)ccc1CNC[C@@H]1CCC(=O)N1 [Compound 126] | 103
COc1cc(-c2cccc(-c3cccc4c3cnn4Cc3cc(OCC(N)=O)c(CN(C)C[C@H]4CC[C@H](C(=O)O)CC4)cc3Cl)c2Cl)ccc1CNC[C@@H]1CCC(=O)N1 [Compound 127] | 160
COc1cc(-c2cccc(-c3cccc4c3cnn4Cc3cc(OCC(=O)O)c(CN(C)C[C@H]4CC[C@H](C(=O)O)CC4)cc3Cl)c2Cl)ccc1CNC[C@@H]1CCC(=O)N1 [Compound 128] | 391
COc1cc(Cn2ncc3c(-c4cccc(-c5cc(F)c(CNC[C@@H]6CCC(=O)N6)c(OC)c5)c4Cl)cccc32)c(Cl)cc1CN(C)C[C@H]1CC[C@H](CC(=O)O)CC1 [Compound 130] | 134
COc1cc(Cn2ncc3c(-c4cccc(-c5cc(F)c(CNC[C@@H]6CCC(=O)N6)c(OC)c5)c4Cl)cccc32)c(Cl)cc1CN(C)[C@H]1CC[C@H](CCC(=O)O)CC1 [Compound 131] | 40
COc1cc(Cn2ncc3c(-c4cccc(-c5ccc(CNC[C@@H]6CCC(=O)N6)c(OC)n5)c4Cl)cccc32)c(Cl)cc1CN(C)C12CCC(C(=O)O)(CC1)CC2 [Compound 133] | 81
COc1cc(-c2cccc(-c3cccc4c3cnn4Cc3cc(OC[C@@H]4CCC(=O)N4)c(CN(C)C[C@H]4CC[C@H](C(=O)O)CC4)cc3Cl)c2Cl)ccc1CNC[C@@H]1CCC(=O)N1 [Compound 134] | 68
COc1cc(Cn2ncc3c(-c4cccc(-c5cc(F)c(CNC[C@@H]6CCC(=O)N6)c(OC)c5)c4Cl)cccc32)c(Cl)cc1CN(C)C12CC(C(=O)O)(C1)C2 [Compound 136] | 240
COc1nc(-c2cccc(-c3cccc4c3cnn4Cc3nc(OC)c(CN(C)C45CCC(C(=O)O)(CC4)CC5)cc3Cl)c2Cl)ccc1CNC[C@@H]1CCC(=O)N1 [Compound 137] | 41
COc1cc(Cn2ncc3c(-c4cccc(-c5cc(F)c(CNC[C@@H]6CCC(=O)N6)c(OC)c5)c4Cl)cccc32)c(C#N)cc1CN(C)[C@H]1CC[C@H](CC(=O)O)CC1 [Compound 141] | 40
COc1cc(Cn2ncc3c(-c4cccc(-c5cc(F)c(CNC[C@@H]6CCC(=O)N6)c(OC)c5)c4Cl)cccc32)c([N+](=O)[O-])cc1CN(C)[C@H]1CC[C@H](C(=O)O)CC1 [Compound 142] | 37
COc1cc(Cn2ncc3c(-c4cccc(-c5cc(F)c(CNC[C@@H]6CCC(=O)N6)c(OC)c5)c4Cl)cccc32)c([N+](=O)[O-])cc1CN(C)[C@H]1CC[C@H](CC(=O)O)CC1 [Compound 144] | 40
COc1cc(Cn2ncc3c(-c4cccc(-c5cc(F)c(CNC[C@@H]6CCC(=O)N6)c(OC)c5)c4Cl)cccc32)c([N+](=O)[O-])cc1CN(C)C12CCC(C(=O)O)(CC1)CC2 [Compound 145] | 51
COc1cc(Cn2ncc3c(-c4cccc(-c5cc(F)c(CNC[C@@H]6CCC(=O)N6)c(OC)c5)c4Cl)cccc32)c(C(F)(F)F)cc1CN(C)[C@H]1CC[C@H](CC(=O)O)CC1 [Compound 147] | 32
COc1cc(Cn2ncc3c(-c4cccc(-c5cc(F)c(CNC[C@@H]6CCC(=O)N6)c(OC)c5)c4Cl)cccc32)c(C(F)(F)F)cc1CN(C)[C@H]1CC[C@H](C(=O)O)CC1 [Compound 148] | 34

Stronger by EC50, values ahead:

EC50 [nM] | SMILES
31 | COc1cc(Cn2ncc3c(-c4cccc(-c5cc(F)c(CNC[C@@H]6CCC(=O)N6)c(OC)c5)c4Cl)cccc32)c([N+](=O)[O-])cc1CN(C)[C@H]1C[C@H](C(=O)O)C1 [Compound 143]
29 | COc1cc(-c2cccc(-c3cccc4c3cnn4Cc3cc(OC)c(CN(C)[C@H]4CC[C@H](C(=O)NS(C)(=O)=O)CC4)cc3Cl)c2Cl)ccc1CNC[C@@H]1CCC(=O)N1 [Compound 129]
28 | COc1cc(-c2cccc(-c3cccc4c3cnn4Cc3cc(OC)c(CN(C)C4CCC(CC(=O)O)CC4)cc3C(F)(F)F)c2Cl)ccc1CNC[C@@H]1CCC(=O)N1 (some centres unmarked) [Compound 146]
28 | COc1cc(Cn2ncc3c(-c4cccc(-c5cc(F)c(CNC[C@@H]6CCC(=O)N6)c(OC)c5)c4Cl)cccc32)c(C(F)(F)F)cc1CN(C)[C@H]1C[C@H](C(=O)O)C1 [Compound 149]
25 | COc1cc(-c2cccc(-c3cccc4c3cnn4Cc3nc(OC)c(CN(C)C45CCC(C(=O)O)(CC4)CC5)cc3Cl)c2Cl)cc(F)c1CNC[C@@H]1CCC(=O)N1 [Compound 135]
25 | COc1cc(Cn2ncc3c(-c4cccc(-c5cc(F)c(CNC[C@@H]6CCC(=O)N6)c(OC)c5)c4Cl)cccc32)c(C#N)cc1CN(C)[C@]12CC[C@@](C(=O)O)(CC1)CC2 [Compound 140]
23 | COc1cc(Cn2ncc3c(-c4cccc(-c5cc(F)c(CNC[C@@H]6CCC(=O)N6)c(OC)c5)c4Cl)cccc32)c(Cl)cc1CN(C)[C@H]1CC[C@H](/C=C/C(=O)O)CC1 [Compound 132]
16 | COc1cc(Cn2ncc3c(-c4cccc(-c5cc(F)c(CNC[C@@H]6CCC(=O)N6)c(OC)c5)c4Cl)cccc32)c(Cl)cc1CN(C)C1CCC(CC(=O)O)CC1 (some centres unmarked) [Compound 115]
16 | COc1cc(Cn2ncc3c(-c4cccc(-c5cc(F)c(CNC[C@@H]6CCC(=O)N6)c(OC)c5)c4Cl)cccc32)c(Cl)cc1CN(C)C12CCC(C(=O)O)(CC1)CC2 [Compound 116]
15 | COc1cc(Cn2ncc3c(-c4cccc(-c5cc(F)c(CNC[C@@H]6CCC(=O)N6)c(OC)c5)c4Cl)cccc32)c(Cl)cc1CN(C)[C@H]1C[C@H](C(=O)O)C1 [Compound 113]
15 | COc1cc(Cn2ncc3c(-c4cccc(-c5cc(F)c(CNC[C@@H]6CCC(=O)N6)c(OC)c5)c4Cl)cccc32)c(C#N)cc1CN(C)[C@H]1C[C@H](C(=O)O)C1 [Compound 139]
14 | COc1cc(Cn2ncc3c(-c4cccc(-c5cc(F)c(CNC[C@@H]6CCC(=O)N6)c(OC)c5)c4Cl)cccc32)c(Cl)cc1CN(C)[C@H]1CC[C@H](C(=O)O)CC1 [Compound 114]

— US12583839B2, “PD-L1 antagonist compound” (ADLAI NORTYE BIOPHARMA CO., LTD., priority 2019, dated 2026)
